Test results reported in patent US20160346347A1 (Oculis ehf., priority 2015, published 2016).

Experiments:
[1] = format: physicochemical
Description: An excess amount of drug was added to aqueous solutions containing up to 20% (w/v) cyclodextrin. The solutions were sonicated at 40-50° C. for 45-60 minutes in sealed glass vials, and then allowed to cool to room temperature (22-23° C.). Small amount of solid drug was then added to each vial, the vial resealed and allowed to equilibrate under constant agitation and protected from light for 7 days at room temperature. When the solutions had reached equilibrium, they were filtered through a 0.45 μm membrane filter and analyzed by high pressure liquid chromatography. […] The complexation efficiency (CE) was determined from the slope of phase-solubility diagrams (plots of total solubility of the drug versus total CD concentration in mol/l) where S0 is the intrinsic solubility of the drug:
The mobile phase consisted of acetonitrile, methanol and water (60:20:20), the flow rate was 1 ml/min, the column oven temperature was 80° C. and the detection wavelength was 205 nm.

[2] = in water (β-cyclodextrin: pure water at room temperature); cited from earlier work

| Compound | CE (complexation efficiency) [1] | Solubility in the presence of 5% (w/v) cyclodextrin [1] | Solubility in the presence of 15% (w/v) cyclodextrin [1] | aqueous solubility of the cyclodextrin [2] |
| --- | --- | --- | --- | --- |
| 2-Hydroxypropyl-α-cyclodextrin | 0.031 | 84 µg/mL | 460 µg/mL |  |
| 2-Hydroxypropyl-γ-cyclodextrin | 0.0011 | 48 ± 4 µg/mL | 62 ± 5 µg/mL |  |
| OC[C@H]1O[C@@H]2O[C@H]3[C@H](O)[C@@H](O)[C@@H](O[C@H]4[C@H](O)[C@@H](O)[C@@H](O[C@H]5[C@H](O)[C@@H](O)[C@@H](O[C@H]6[C@H](O)[C@@H](O)[C@@H](O[C@H]7[C@H](O)[C@@H](O)[C@@H](O[C@H]1[C@H](O)[C@H]2O)O[C@@H]7CO)O[C@@H]6CO)O[C@@H]5CO)O[C@@H]4CO)O[C@@H]3CO [α-Cyclodextrin] | 0.54 | 760 ± 16 µg/mL |  | 13 % (w/v) |
| OC[C@H]1O[C@@H]2O[C@H]3[C@H](O)[C@@H](O)[C@@H](O[C@H]4[C@H](O)[C@@H](O)[C@@H](O[C@H]5[C@H](O)[C@@H](O)[C@@H](O[C@H]6[C@H](O)[C@@H](O)[C@@H](O[C@H]7[C@H](O)[C@@H](O)[C@@H](O[C@H]8[C@H](O)[C@@H](O)[C@@H](O[C@H]1[C@H](O)[C@H]2O)O[C@@H]8CO)O[C@@H]7CO)O[C@@H]6CO)O[C@@H]5CO)O[C@@H]4CO)O[C@@H]3CO [β-Cyclodextrin] | 0.030 |  |  | 2 % (w/v) |
| OC[C@H]1O[C@@H]2O[C@H]3[C@H](O)[C@@H](O)[C@@H](O[C@H]4[C@H](O)[C@@H](O)[C@@H](O[C@H]5[C@H](O)[C@@H](O)[C@@H](O[C@H]6[C@H](O)[C@@H](O)[C@@H](O[C@H]7[C@H](O)[C@@H](O)[C@@H](O[C@H]8[C@H](O)[C@@H](O)[C@@H](O[C@H]9[C@H](O)[C@@H](O)[C@@H](O[C@H]1[C@H](O)[C@H]2O)O[C@@H]9CO)O[C@@H]8CO)O[C@@H]7CO)O[C@@H]6CO)O[C@@H]5CO)O[C@@H]4CO)O[C@@H]3CO [γ-Cyclodextrin] | 0.0049 | 62 ± 0.6 µg/mL | 110 ± 1.5 µg/mL | 25 % (w/v) |
| Randomly methylated β-cyclodextrin | 0.053 | 130 µg/mL |  |  |
